# ChEMBL document CHEMBL5550106, “Recent advances in the exploration of oxazolidinone scaffolds from compound development to antibacterial agents and other bioactivities” (Eur J Med Chem, 2024)
# pIC50: −log10 of the molar value.
# Experiments:
# Pseudomonas aeruginosa [1] = assay: Antibacterial activity against Pseudomonas aeruginosa PAO1 assessed as bacterial growth inhibition incubated for 24 hrs by microtiter plate reader analysis; assay type: functional
# Pseudomonas aeruginosa [2] = assay: Antibacterial activity against wild-type Pseudomonas aeruginosa PAO1 incubated for 24 hrs by broth microdilution method; assay type: functional
# Haemophilus influenzae [3] = assay: Antibacterial activity against Haemophilus influenzae assessed as bacterial growth inhibition measured after 16 to 24 hrs by broth microdilution assay; assay type: functional; settings: time 16-24 hrs
# [4] = tested on: Staphylococcus epidermidis; assay: Antibacterial activity against Methicillin-resistant Staphylococcus epidermidis assessed as inhibition of bacterial growth; assay type: functional
# Staphylococcus aureus [5] = assay: Antibacterial activity against Methicillin-resistant Staphylococcus aureus assessed as inhibition of bacterial growth; assay type: functional
# Coagulation factor X = Coagulation factor X (Homo sapiens, UniProt P00742); assay: Inhibition of human factor Xa
# [6] = tested on: Mycobacterium tuberculosis; assay: Antimycobacterial activity against Mycobacterium tuberculosis H37Rv assessed as reduction in bacterial growth measured for 7 days by resazurin dye based assay; assay type: functional; settings: 168 h, time 7 day
# Enterococcus faecalis = assay: Antibacterial activity against vancomycin-resistant Enterococcus faecalis incubated for 18 hrs by broth microdilution method; assay type: functional
# Staphylococcus aureus [7] = assay: Antimicrobial activity against Methicillin-sensitive Staphylococcus aureus ATCC 29213 assessed as reduction in bacterial growth; assay type: functional
# Staphylococcus aureus [8] = assay: Antimicrobial activity against […] Staphylococcus aureus ATCC 25923 assessed as reduction in microbial growth; assay type: functional
# Staphylococcus aureus [9] = assay: Antibacterial activity against Methicillin-resistant Staphylococcus aureus ATCC 33592 assessed as reduction in bacterial growth; assay type: functional
# Staphylococcus aureus [10] = assay: Antibacterial activity against methicillin-sensitive Staphylococcus aureus assessed as reduction in bacterial growth incubated for 24 hrs by broth microdilution method; assay type: functional
# Haemophilus influenzae [11] = assay: Antibacterial activity against Haemophilus influenzae assessed as bacterial growth inhibition; assay type: functional
# Enterococcus faecium = assay: Antibacterial activity against vancomycin-resistant Enterococcus faecium assessed as reduction in microbial growth CLSI-based double dilution method; assay type: functional
# [12] = tested on: Mycobacterium tuberculosis; assay: Antibacterial activity against Mycobacterium tuberculosis H37Rv assessed as inhibition of bacterial growth; assay type: functional
# Staphylococcus aureus [13] = assay: Antibacterial activity against methicillin-sensitive Staphylococcus aureus assessed as reduction in microbial growth by CLSI based broth microdilution method; assay type: functional
# Staphylococcus aureus [14] = assay: Antibacterial activity against Linezolid-resistant Staphylococcus aureus assessed as reduction in bacterial growth; assay type: functional
# [15] = tested on: Staphylococcus epidermidis; assay: Antibacterial activity against Staphylococcus epidermidis assessed as reduction in microbial growth after 24 hrs by CLSI based microdilution method; assay type: functional
# Staphylococcus aureus [16] = assay: Antibacterial activity against Staphylococcus aureus assessed as reduction in microbial growth by CLSI based broth microdilution method; assay type: functional
# [17] = tested on: Staphylococcus epidermidis; assay: Antibacterial activity against linezolid-resistant Staphylococcus epidermidis assessed as reduction in bacterial growth; assay type: functional
# [18] = tested on: Staphylococcus epidermidis; assay: Antibacterial activity against Methicillin-resistant Staphylococcus epidermidis assessed as bacterial growth inhibition; assay type: functional
# Staphylococcus aureus [19] = assay: Antibacterial activity against methicillin-resistant Staphylococcus aureus assessed as reduction in microbial growth by CLSI based broth microdilution method; assay type: functional
# [20] = tested on: Mycobacterium tuberculosis; assay: Antibacterial activity against Mycobacterium tuberculosis H37Rv assessed as bacterial growth inhibition incubated for 8 days by resazurin assay; assay type: functional; settings: 192 h, time 8 day
# Chain of Coagulation factor X (P00742 41-179 limits assumed): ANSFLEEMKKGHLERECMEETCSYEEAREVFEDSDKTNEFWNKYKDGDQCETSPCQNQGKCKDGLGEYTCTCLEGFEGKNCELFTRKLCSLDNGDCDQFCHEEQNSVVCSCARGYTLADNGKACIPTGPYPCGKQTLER
# Chain of Coagulation factor X (P00742 235-488 limits assumed): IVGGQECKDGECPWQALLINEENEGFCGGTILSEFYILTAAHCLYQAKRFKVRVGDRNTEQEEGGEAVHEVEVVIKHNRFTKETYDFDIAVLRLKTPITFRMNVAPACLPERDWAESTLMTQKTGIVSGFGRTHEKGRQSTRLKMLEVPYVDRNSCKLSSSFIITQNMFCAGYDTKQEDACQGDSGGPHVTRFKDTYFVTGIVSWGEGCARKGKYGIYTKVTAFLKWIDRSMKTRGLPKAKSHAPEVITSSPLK
smiles,measurement,setting,value
CC(=O)NCC1CN(c2ccc(N3CCN(C(=O)COn4cc(CNC(=O)C(CNC(=O)C(CNC(=O)CNC(=O)c5cccc(O)c5O)NC(=O)c5cccc(O)c5O)NC(=O)c5cccc(O)c5O)nn4)CC3)c(F)c2)C(=O)O1 (stereo not drawn),MIC,Pseudomonas aeruginosa [1],16 µM
same,MIC,Pseudomonas aeruginosa [2],> 64 µM
C[S+]([O-])c1ccc(N2CC(CCl)OC2=O)cc1 (stereo not drawn),MIC,Haemophilus influenzae [3],16 µg/mL
CC(=O)NC[C@H]1CN(c2ccc([S+](C)[O-])cc2)C(=O)O1 (stereo partly drawn),MIC,[4],1 µg/mL
same,MIC,Staphylococcus aureus [5],1 µg/mL
CC(=O)N(C)c1ccc2c(c1)OC[C@H]1[C@H](CNC(=O)c3ccc(Cl)s3)OC(=O)N21,pIC50,Coagulation factor X,5.66
CC(=O)NCC1CN(c2ccc(N3CCN(C(=O)CCOCCOCn4cc(CNC(=O)C(CNC(=O)C(CNC(=O)CNC(=O)c5cccc(O)c5O)NC(=O)c5cccc(O)c5O)NC(=O)c5cccc(O)c5O)nn4)CC3)c(F)c2)C(=O)O1 (stereo not drawn),MIC,Pseudomonas aeruginosa [1],64 µM
same,MIC,Pseudomonas aeruginosa [2],> 64 µM
O=C(NC[C@@H]1OC(=O)N2c3ccc(N4CCOCC4=O)cc3NC[C@@H]12)c1ccc(Cl)s1,pIC50,Coagulation factor X,8.30
Cn1nnc(-c2ccc(-c3ccc(N4C[C@H](COP(=O)(O)O)OC4=O)cc3F)cn2)n1 [TEDIZOLID PHOSPHATE],MIC90,[6],0.125 µg/mL
same,MIC90,Enterococcus faecalis,0.12 µg/mL
same,MIC90,Staphylococcus aureus [7],0.12 µg/mL
same,MIC90,Staphylococcus aureus [8],0.12 µg/mL
CC(=O)NC[C@H]1CN(c2ccc(-c3ccc(CNCc4cnn[nH]4)cc3)c(F)c2)C(=O)O1 [RADEZOLID],MIC90,Staphylococcus aureus [9],0.5 µg/mL
same,MIC90,Staphylococcus aureus [10],0.5 µg/mL
same,MIC90,Haemophilus influenzae [11],0.5 µg/mL
same,MIC90,Enterococcus faecium,0.5 µg/mL
CC(C)(C)Oc1ccc(C[C@H](NC(=O)OCC2c3ccccc3-c3ccccc32)C(=O)N[C@@H](Cc2ccccc2)[C@@H]2CN(c3ccc(N4CCOCC4)c(F)c3)C(=O)O2)cc1,MIC,[12],12.5 µg/mL
NS(=O)(=O)c1ccc(N2C[C@H](CO)OC2=O)cc1,MIC,Haemophilus influenzae [3],16 µg/mL
C[C@H](NC(=O)[C@H](NC(=O)OCC1c2ccccc2-c2ccccc21)[C@H](C)OC(C)(C)C)[C@H]1CN(c2ccc(N3CCOCC3)c(F)c2)C(=O)O1,MIC,Staphylococcus aureus [13],6.25 µg/mL
O=C(NC[C@@H]1OC(=O)N2c3ccc(N4CCOCC4=O)cc3OC[C@@H]12)c1ccc(Cl)s1,pIC50,Coagulation factor X,8.52
COC(=O)NC[C@H]1CN(c2ccc(-c3ccc4c(c3)CC3(C(=O)NC(=O)NC3=O)C3CCCN43)c(F)c2)C(=O)O1 (stereo partly drawn),MIC,Staphylococcus aureus [14],32 µg/mL
same,MIC,[15],2 µg/mL
same,MIC,Staphylococcus aureus [16],2 µg/mL
same,MIC,[17],32 µg/mL
same,MIC,[18],2 µg/mL
same,MIC,Staphylococcus aureus [19],2 µg/mL
O=C(NC[C@@H]1OC(=O)N2c3ccc(N4CCOC4=O)cc3OC[C@@H]12)c1ccc(Cl)s1,pIC50,Coagulation factor X,4.80
O=C(NC[C@@H]1OC(=O)N2c3ccc(N4CCOCC4=O)cc3[S+]([O-])C[C@@H]12)c1ccc(Cl)s1 (stereo partly drawn),pIC50,Coagulation factor X,7.22
COC(=O)NC[C@H]1CN(c2ccc(-c3ccc4c(c3)CC3(C(=O)NC(=O)NC3=O)C3COCCN43)c(F)c2)C(=O)O1 (stereo partly drawn),MIC,Staphylococcus aureus [14],> 32 µg/mL
same,MIC,[15],4 µg/mL
same,MIC,Staphylococcus aureus [16],4 µg/mL
same,MIC,[17],32 µg/mL
same,MIC,[18],2 µg/mL
same,MIC,Staphylococcus aureus [19],4 µg/mL
O=C(NC[C@@H]1OC(=O)N2c3ccc(N4CCOCC4=O)cc3CC[C@@H]12)c1ccc(Cl)s1,pIC50,Coagulation factor X,8.40
O=C([C@@H](O)CO)N1CC=C(c2c(F)cc(N3C[C@H](COc4ccon4)OC3=O)cc2F)CC1 [POSIZOLID],MIC90,[20],1 µg/mL
O=C(NC[C@@H]1OC(=O)N2c3ccc(N4CCOCC4=O)cc3OC[C@H]12)c1ccc(Cl)s1,pIC50,Coagulation factor X,7.30
